From US4355026A, “4-Demethoxy,11-deoxy anthracycline derivatives” (priority 1980, dated 1982)
In brackets after ≈: the same amount, converted by molar mass. Where two headings read alike, the source gives them in different places.

Columns and labels:
[1] = tested on: L1210 leukemia cells, RNA synthesis; experiment: Inhibition of RNA synthesis (14C-uridine incorporation) of L1210 cultivated leukemic cells; format: cell-based; conditions: Mus musculus, L1210, 1 h, 14C-uridine, 60 minutes, 37° C.; for IC50: read-out: IC50 RNA synthesis; for IC90: 90% inhibition, read-out: IC90 RNA synthesis
Experimental: (§1) A. Inhibitory Effect on Growth, DNA Synthesis and RNA Synthesis of L1210 Cultivated Leukemic Cells of Mice
(§2) Separately, the above L1210 cultivated cells were suspended in a concentration of 5×10^5 cells/ml in an RPMI 1640 medium containing 10% calf serum and cultivated for 1 to 2 hours in a CO2 incubator at 37° C. Then, representative test compounds were added in various concentrations, and 15 minutes later, ^14 C-uridine (0.05 μCi/ml) or ^14 C-thymidine (0.05 μCi/ml) were added. The cells were incubated at 37° C. for 60 minutes. A 10% aqueous trichloroacetic acid solution was added to the incubation medium to stop the reaction and simultaneously precipitate acid-insoluble matter. The acid-insoluble matter was washed three times with a 5 to 10% aqueous solution of trichloroacetic acid and then dissolved in formic acid. The radioactivity of the acid-insoluble matter was measured. From the ratio of incorporated radiation to that of a control group, the concentrations which inhibited radiation by 10%, 50% and 90% respectively were measured.

[2] = tested on: L1210 leukemia cells, DNA synthesis; experiment: Inhibition of DNA synthesis (14C-thymidine incorporation) of L1210 cultivated leukemic cells; format: cell-based; conditions: Mus musculus, L1210, 1 h, 14C-thymidine, 60 minutes, 37° C.; for IC50: read-out: IC50 DNA synthesis; for IC90: 90% inhibition, read-out: IC90 DNA synthesis
Experimental: as §1, §2

[3] = tested on: L1210 leukemia cells; experiment: Inhibitory effect on growth of L1210 cultivated leukemic cells of mice; format: cell-based; conditions: Mus musculus, RPMI 1640, 20% calf serum, 37° C.
Experimental: as §1
For example, L1210 cells were inoculated in a concentration of 5×10^4 cells/ml in an RPMI 1640 culture medium (Roswell Park Memorial Institute 1640) containing 20% calf serum and, simultaneously, representative compounds of the present invention were added in a concentration of 0.1 and 0.5 μg/ml. The cells were cultivated in a CO2 generator at 37° C. The 50% growth inhibitory concentration with respect to a control group was then determined.

[4] = tested on: L1210 leukemia cells; experiment: Antitumor activity on CDFI mouse leukemia induced by mouse L1210 leukemia cells; format: in vivo, CDFI mice; conditions: intraperitoneal, 10 consecutive days
Experimental: B. Antitumor Activity on CDFI Mouse Leukemia Induced by Mouse L1210 Leukemia cells
L1210 leukemia cells of mice were intraperitoneally transplanted in an amount of 1×10^5 cells/mouse in CDFI mice. Starting 24 hours after the transplantation, each of the test compounds was intraperitoneally administered to the mice for 10 consecutive days. the survival rate (T/C, %) was calculated in comparison with a control group (to which physiological saline was administered).

[5] = tested on: Microccus lysodeikticus IFQ 3333; experiment: MIC on nutrient agar medium; format: cell-based
Text: (§3) The compounds of formula I provided by the present invention are also characterized by their antimicrobial activity. Table 3 summarizes the minimum inhibitory concentrations (MIC) of representative compounds of the present invention against various microorganisms on a nutrient agar medium.

[6] = tested on: Staphylococcus aureus FDA 209; experiment: MIC on nutrient agar medium; format: cell-based; conditions: FDA209
Text: as §3

[7] = tested on: Staphylococcus aureus smith; experiment: MIC on nutrient agar medium; format: cell-based
Text: as §3

[8] = tested on: Shigella flexneri 46 JS 11811; experiment: MIC on nutrient agar medium; format: cell-based; conditions: 46JS11811
Text: as §3

[9] = tested on: Klebsiella pneumonia PCI 602; experiment: MIC on nutrient agar medium; format: cell-based; conditions: Klebsiella pneumoniae, PCI602
Text: as §3

[10] = tested on: Salmonella typhi T - 63; experiment: MIC on nutrient agar medium; format: cell-based; conditions: Salmonella enterica
Text: as §3

[11] = tested on: Candida albicans 3147; experiment: MIC on nutrient agar medium; format: cell-based
Text: as §3

[12] = tested on: Corynebacterium bovis 1810; experiment: MIC on nutrient agar medium; format: cell-based
Text: as §3

[13] = tested on: Bacillus subtilis NRRB- 558; experiment: MIC on nutrient agar medium; format: cell-based; conditions: NRRB558
Text: as §3

[14] = tested on: Mycobacterium smegmatis ATCC 607; experiment: MIC on nutrient agar medium; format: cell-based; conditions: Mycolicibacterium smegmatis, ATCC607
Text: as §3

[15] = tested on: Sarcina lutea PCI 1001; experiment: MIC on nutrient agar medium; format: cell-based; conditions: Micrococcus luteus, PCI1001
Text: as §3

[16] = tested on: Bacillus megatherium APF; experiment: MIC on nutrient agar medium; format: cell-based
Text: as §3

[17] = tested on: Pseudomonas aeruginosa A3; experiment: MIC on nutrient agar medium; format: cell-based
Text: as §3

[18] = tested on: Escherichia coli NIHJ; experiment: MIC on nutrient agar medium; format: cell-based
Text: as §3

[19] = tested on: Bacillus cereus ATCC 10702; experiment: MIC on nutrient agar medium; format: cell-based; conditions: ATCC10702
Text: as §3

[20] = tested on: Bacillus subtilis PCI 219; experiment: MIC on nutrient agar medium; format: cell-based; conditions: PCI219
Text: as §3

[21] = tested on: Microccus flavus FDA 16; experiment: MIC on nutrient agar medium; format: cell-based
Text: as §3

[22] = L1210, 24 h, 1 day later, read-out: IC50 growth, 1 day later
[23] = L1210, 48 h, 2 days later, read-out: IC50 growth, 2 days later

## CC(=O)[C@@]1(O)Cc2cc3c(c(O)c2[C@H](O[C@@H]2C[C@H](N)[C@H](O)[C@H](C)O2)C1)C(=O)c1ccccc1C3=O (single isomer, unassigned; isomer 4) [4-Demethoxy-11-deoxy-daunomycin (7R,9R,1'β )isomer, 4-Demethoxy-11-deoxydaunomycin]
[1]
  IC50: 5 µg/mL (≈ 10.4 µM)
  IC90: 13 µg/mL (≈ 27 µM)
[2]
  IC50: 4.5 µg/mL (≈ 9.35 µM)
  IC90: 15 µg/mL (≈ 31.2 µM)
[3]; [22]
  IC50: 2 µg/mL (≈ 4.15 µM)
[3]; [23]
  IC50: 1.25 µg/mL (≈ 2.6 µM)

## CC(=O)[C@]1(O)Cc2c(O)c3c(c(O)c2[C@@H](O[C@H]2C[C@H](N)[C@H](O)[C@H](C)O2)C1)C(=O)c1ccccc1C3=O [4-Demethoxy-daunomycin, reference compound]
[1]
  IC50: 0.14 µg/mL (≈ 0.281 µM)
  IC90: 1.4 µg/mL (≈ 2.81 µM)
[2]
  IC50: 0.08 µg/mL (≈ 0.161 µM)
  IC90: 1.2 µg/mL (≈ 2.41 µM)
[3]; [22]
  IC50: 0.01 µg/mL (≈ 0.0201 µM)
[3]; [23]
  IC50: 0.005 µg/mL (≈ 0.0101 µM)

## COc1cccc2c1C(=O)c1c(cc3c(c1O)[C@@H](O[C@H]1C[C@H](N)[C@H](O)[C@H](C)O1)C[C@](O)(C(C)=O)C3)C2=O [11-deoxy-daunomycin, reference compound]
[3]; [22]
  IC50: 0.05 µg/mL (≈ 0.0977 µM)

## CC(=O)[C@]1(O)Cc2cc3c(c(O)c2[C@@H](O[C@H]2C[C@H](N)[C@H](O)[C@H](C)O2)C1)C(=O)c1ccccc1C3=O (single isomer, unassigned; isomer 4) [4-Demethoxy-11-deoxy-daunomycin (7S,9S,1'α)isomer, 4-Demethoxy-11-deoxydaunomycin]
[4]; 0.15 mg/kg/day
  Survival rate (T/C, %): 103%
[4]; 0.3 mg/kg/day
  Survival rate (T/C, %): 115%
[4]; 0.6 mg/kg/day
  Survival rate (T/C, %): 115%
[4]; 1.25 mg/kg/day
  Survival rate (T/C, %): 135%
[4]; 2.5 mg/kg/day
  Survival rate (T/C, %): 160%
[1]
  IC50: 0.34 µg/mL (≈ 0.706 µM)
  IC90: 2.5 µg/mL (≈ 5.19 µM)
[5]
  MIC: 12.5 µg/mL (≈ 26 µM)
[6]
  MIC: 25 µg/mL (≈ 51.9 µM)
[7]
  MIC: 12.5 µg/mL (≈ 26 µM)
[8]
  MIC: 100 µg/mL (≈ 208 µM)
[9]
  MIC: 100 µg/mL (≈ 208 µM)
[10]
  MIC: > 100 µg/mL
[11]
  MIC: 100 µg/mL (≈ 208 µM)
[12]
  MIC: 6.25 µg/mL (≈ 13 µM)
[13]
  MIC: 6.25 µg/mL (≈ 13 µM)
[14]
  MIC: 12.5 µg/mL (≈ 26 µM)
[15]
  MIC: 6.25 µg/mL (≈ 13 µM)
[16]
  MIC: 6.25 µg/mL (≈ 13 µM)
[17]
  MIC: > 100 µg/mL
[18]
  MIC: > 100 µg/mL
[19]
  MIC: 12.5 µg/mL (≈ 26 µM)
[20]
  MIC: 3.12 µg/mL (≈ 6.48 µM)
[21]
  MIC: 6.25 µg/mL (≈ 13 µM)
[2]
  IC50: 0.22 µg/mL (≈ 0.457 µM)
  IC90: 2.5 µg/mL (≈ 5.19 µM)
[3]; [22]
  IC50: 0.09 µg/mL (≈ 0.187 µM)
[3]; [23]
  IC50: 0.01 µg/mL (≈ 0.0208 µM)

## COc1cccc2c1C(=O)c1c(cc3c(c1O)[C@@H](O[C@H]1C[C@H](N)[C@H](O)[C@H](C)O1)C[C@](O)(C(=O)CO)C3)C2=O [11-Deoxy-adriamycin, reference compound]
[3]; [22]
  IC50: 0.005 µg/mL (≈ 0.00948 µM)
